Source: patent publication US8906866B2, “Antibiotic compositions for the treatment of gram negative infections” (priority 2010, dated 2014)
*1 amine or outer side, *2 acyl side, *3 side chain or, on linkers, in order; H or OH if unused. Where a SMILES comes first, the peptide text is derived from it. Bridges are numbered along the chain shown (N, C = ends). [ ]: non-standard residue; d: D form. The star is where a group is joined. ξ: configuration not given here. Thr(3ξ) = CC(O)[C@H](N)C(=O)O; NH(2-ClPh) = Clc1ccccc1N*; X1 = CC[C@H](C)CCCCC(=O)*; dDab = NCC[C@@H](N)C(=O)O; Dab = NCC[C@H](N)C(=O)O; CO = O=C([*:1])[*:2]; ξDab = NCCC(N)C(=O)O

Key:
E. coli 1527 = experiment: MIC against the primary screening panel (broth microdilution); format: cell-based, Escherichia coli; parameters: key: A: a MIC value measurement that is the same as that observed for polymyxin B; a MIC value measured that is lower than the comparable value observed for polymxin B; a MIC value measured that is higher than the comparable value observed for polymyxin B; conditions: relative to polymyxin B
Method: (§1) Antibacterial potency can be assessed by broth microdilution according to CLSI guidelines, plates can be incubated at 37° C., and aeration (rotation at 200 rpm) can be employed. In some assays, surfactant (Survanta, Abbott Laboratories) can be added to give a final concentration of 1, 10 and 40% in caMHB. Native polymyxin A, polymyxin B and the comparator compound of Formula II (polymyxin B decapeptide with an o-chlorophenyl urea tail) were included for comparison.

K. pneumoniae 933 = experiment: as above; format: cell-based, Klebsiella pneumoniae; parameters: key: A: a MIC value measurement that is the same as that observed for polymyxin B; a MIC value measured that is lower than the comparable value observed for polymxin B; a MIC value measured that is higher than the comparable value observed for polymyxin B; conditions: relative to polymyxin B
Method: as §1

P. aeruginosa 44 [1] = experiment: as above; format: cell-based, Pseudomonas aeruginosa; parameters: key: A: a MIC value measurement that is the same as that observed for polymyxin B; a MIC value measured that is lower than the comparable value observed for polymxin B; a MIC value measured that is higher than the comparable value observed for polymyxin B; conditions: relative to polymyxin B
Method: as §1

A. baumannii 1570 = experiment: as above; format: cell-based, Acinetobacter baumannii; parameters: key: A: a MIC value measurement that is the same as that observed for polymyxin B; a MIC value measured that is lower than the comparable value observed for polymxin B; a MIC value measured that is higher than the comparable value observed for polymyxin B; conditions: relative to polymyxin B
Method: as §1

E. coli [2] = experiment: MIC50/90 against small panels (n = 35); format: cell-based, Escherichia coli; parameters: key: A: a MIC value measurement that is the same as that observed for polymyxin B; a MIC value measured that is lower than the comparable value observed for polymxin B; a MIC value measured that is higher than the comparable value observed for polymyxin B; conditions: small panel n = 35, relative to polymyxin B
Method: as §1

K. pneumoniae = experiment: MIC50/90 against small panels (n = 35); format: cell-based, Klebsiella pneumoniae; parameters: key: A: a MIC value measurement that is the same as that observed for polymyxin B; a MIC value measured that is lower than the comparable value observed for polymxin B; a MIC value measured that is higher than the comparable value observed for polymyxin B; conditions: small panel n = 35, relative to polymyxin B
Method: as §1

P. aeruginosa = experiment: MIC50/90 against small panels (n = 35); format: cell-based, Pseudomonas aeruginosa; parameters: key: A: a MIC value measurement that is the same as that observed for polymyxin B; a MIC value measured that is lower than the comparable value observed for polymxin B; a MIC value measured that is higher than the comparable value observed for polymyxin B; conditions: small panel n = 35, relative to polymyxin B
Method: as §1

A. baumannii = experiment: MIC50/90 against small panels (n = 35); format: cell-based, Acinetobacter baumannii; parameters: key: A: a MIC value measurement that is the same as that observed for polymyxin B; a MIC value measured that is lower than the comparable value observed for polymxin B; a MIC value measured that is higher than the comparable value observed for polymyxin B; conditions: small panel n = 35, relative to polymyxin B
Method: as §1

P. aeruginosa #44 [3] = experiment: MICs for P. aeruginosa #44 in the presence of surfactant; format: cell-based, Pseudomonas aeruginosa; parameters: key: A: a MIC value measurement that is the same as that observed for polymyxin B; a MIC value measured that is lower than the comparable value observed for polymxin B; a MIC value measured that is higher than the comparable value observed for polymyxin B; conditions: relative to polymyxin B
Method: as §1

P. aeru = experiment: MIC50 and MIC90, CLSI broth microdilution, panel of Gram negative strains; format: cell-based, Pseudomonas aeruginosa; parameters: key: A: a measured MIC value equal to that of polymyxin B; a measured MIC value less than the corresponding MIC value measured for polymyxin B; a measured MIC value greater than the corresponding MIC value measured for polymyxin B; conditions: relative to polymyxin B, some strains multi-drug resistant
Method: (§2) MIC testing can be performed according to Clinical and Laboratory Standards Institute (CLSI) M7-A7 (2006) broth microdilution methods. Unless otherwise indicated, MIC values are provided in units of micrograms per milliliter.
(§3) One day prior to testing, individual colonies were isolated by streaking onto rich, non-selective Tryptic Soy agar with 5% lysed sheeps blood (TSAB) with incubation at 35-37° C. for 18-24 hours.
(§4) Cultures were prepared by touching 3-5 colonies into 3 mL of cation-adjusted Mueller Hinton Broth (caMHB) in a 14-mL tube (caMHB was prepared and sterilized according to manufacturer's specifications).
(§5) OD600 of growing cultures was measured and adjusted to approximately 10^5 colony forming units per mL (CFU/mL) in caMHB for MIC inoculation (approximately OD600 0.001).
(§6) Diluted cultures were used to inoculate 50 μL per well in broth microdilution assays (final volume 100 μl per well; compounds were prepared in two-fold dilutions).
(§7) Plates were incubated 16-20 hours at 37° C., with shaking at 200 rpm.
(§8) OD600 was determined for all wells. Growth was defined as OD600>0.1. MICs were defined as the lowest concentration producing no visible turbidity (OD600<0.1).

E. coli [4] = experiment: as above; format: cell-based, Escherichia coli; parameters: key: A: a measured MIC value equal to that of polymyxin B; a measured MIC value less than the corresponding MIC value measured for polymyxin B; a measured MIC value greater than the corresponding MIC value measured for polymyxin B; conditions: relative to polymyxin B; some strains multi-drug resistant
Method: as §2, §3, §4, §5, §6, §7, §8

K. pneu = experiment: as above; format: cell-based, Klebsiella pneumoniae; parameters: key: A: a measured MIC value equal to that of polymyxin B; a measured MIC value less than the corresponding MIC value measured for polymyxin B; a measured MIC value greater than the corresponding MIC value measured for polymyxin B; conditions: relative to polymyxin B; some strains multi-drug resistant
Method: as §2, §3, §4, §5, §6, §7, §8

A. baum = experiment: as above; format: cell-based, Acinetobacter baumannii; parameters: key: A: a measured MIC value equal to that of polymyxin B; a measured MIC value less than the corresponding MIC value measured for polymyxin B; a measured MIC value greater than the corresponding MIC value measured for polymyxin B; conditions: relative to polymyxin B; some strains multi-drug resistant
Method: as §2, §3, §4, §5, §6, §7, §8

P. aeruginosa 44 [5] = experiment: Neutropenic mouse lung infection model; format: in vivo; conditions: for Lungs cleared within one log10 of limit of detection: 8 through 20 mg/kg dose levels
Method: Compound of Formula (Ia) was tested in a murine thigh model. For the thigh model, female CD-1 mice were rendered neutropenic by IP injection on days −4 and −1 with 150 and 100 mg/kg cyclophosphamide, respectively. On day 0 mice were infected with 1×10^7 colony-forming units (cfu) of A. baumannii 1570 in one thigh muscle, and then administered compound SC in a dose ranging from 2 to 12 mg/kg at 1 and 6 hours post-infection.
The mouse lung model was run in the same manner as the thigh infection model, except that mice were infected IN with 1×10^7 cfu of P. aeruginosa 44 on day 0. Doses administered in the lung study ranged from 8 to 20 mg/kg. The ED−3log10 was based on cfu determination from the lung tissue 24 hours post-infection.

P. aeruginosa #44 [6] = experiment: MIC against P. aeruginosa #44 in polystyrene plate; format: cell-based, Pseudomonas aeruginosa; conditions: range of repeated tests
Method: P. aeruginosa #44 were grown in cation adjusted Mueller Hinton Broth (caMHB) (catalog#B12322; Fisher Scientific, Pittsburgh, Pa.) at 37° C. MIC testing was performed according to Clinical and Laboratory Standards Institute [CLSI, formerly National Committee for Clinical Laboratory Standards (NCCLS), Wayne, Pa.] guidelines for broth microdilution. […]

[7] = Acute toxicity testing in rats; format: in vivo, Sprague-Dawley rat; conditions: 1 mg/kg i.v., female Sprague-Dawley rat
Method: One female Sprague-Dawley rat was administered a 1 mg/kg dose of the test Compound 5. Clinical observations were taken immediately following the administration of compound and at 0.5, 1, 2 and 4 hours post-dose.

| Molecule | MIC E. coli 1527 (E. coli 1527) | MIC K. pneumoniae 933 (K. pneumoniae 933) | MIC P. aeruginosa 44 (P. aeruginosa 44 [1]) | MIC A. baumannii 1570 (A. baumannii 1570) | E. coli MIC50 (E. coli [2]) | E. coli MIC90 (E. coli [2]) | K. pneumoniae MIC50 (K. pneumoniae) | K. pneumoniae MIC90 (K. pneumoniae) | P. aeruginosa MIC50 (P. aeruginosa) | P. aeruginosa MIC90 (P. aeruginosa) | A. baumannii MIC50 (A. baumannii) | A. baumannii MIC90 (A. baumannii) | MIC P. aeruginosa #44, 0% surfactant (P. aeruginosa #44 [3]) | MIC P. aeruginosa #44, 10% surfactant (P. aeruginosa #44 [3]) | MIC P. aeruginosa #44, 40% surfactant (P. aeruginosa #44 [3]) | E. coli MIC50 (E. coli [4]) | E. coli MIC90 (E. coli [4]) | K. pneu MIC 50 (K. pneu) | K. pneu MIC 90 (K. pneu) | A. baum MIC 50 (A. baum) | other results |
| --- | --- | --- | --- | --- | --- | --- | --- | --- | --- | --- | --- | --- | --- | --- | --- | --- | --- | --- | --- | --- | --- |
| CC(C)C[C@@H]1NC(=O)[C@@H](Cc2ccccc2)NC(=O)[C@H](CCN)NC(=O)C(NC(=O)[C@H](CCN)NC(=O)[C@@H](NC(=O)[C@H](CCN)NC(=O)Nc2ccccc2Cl)C(C)O)CCNC(=O)[C@H](C(C)O)NC(=O)[C@H](CCN)NC(=O)C(CCN)NC1=O (stereo partly shown) [Formula (II) comparator] ({NH(2-ClPh)-CO}-[Dab][Thr(3ξ)][Dab][ξDab][Dab][dF]L[ξDab][Dab][Thr(3ξ)]; lactam 4-C) | C | C | C | C | C | C | C | C | B | A | C | C | C | B | A | C | C | C | C | C | P. aeru MIC 50 (P. aeru; listed as 2): B and A; P. aeru MIC 90 (P. aeru; listed as 2): A and C; A. baum MIC 90 (A. baum): C; Lungs cleared within one log10 of limit of detection (P. aeruginosa 44 [5]): not seen; ED−3log10 (P. aeruginosa 44 [5]; historical data): approximately 12 mg/kg |
| Colistin | – | – | – | – | – | – | – | – | – | – | – | – | – | – | – | – | – | – | – | – | MIC against P. aeruginosa #44 In polystyrene plate (P. aeruginosa #44 [6]): 2-4 micrograms/ml |
| CC[C@H](C)CCCCC(=O)N[C@@H](CCN)C(=O)N[C@H](C(=O)N[C@H](CCN)C(=O)N[C@H]1CCNC(=O)[C@H]([C@@H](C)O)NC(=O)[C@H](CCN)NC(=O)[C@H](CCN)NC(=O)[C@H]([C@@H](C)O)NC(=O)[C@@H](CC(C)C)NC(=O)[C@H](CCN)NC1=O)[C@@H](C)O [Native Polymyxin A, Polymyxin A] (X1-[Dab]T[dDab][Dab][Dab][dL]T[Dab][Dab]T; lactam 4-C) | B | A | C | C | B | A | C | C | A | C | A | A | C | B | B | B | A | C | C | A | P. aeru MIC 50 (P. aeru): A; P. aeru MIC 90 (P. aeru): C; A. baum MIC 90 (A. baum): A; Lungs cleared within one log10 of limit of detection (P. aeruginosa 44 [5]): not observed; ED−3log10 (P. aeruginosa 44 [5]; neutropenic mouse lung, P. aeruginosa 44, SC, BID×1 d, cfu 24 hours post-infection): 16.22 mg/kg; Acute (anaphylactoid) observations [7]: no clinical signs were observed |
